In the NIST ThermoML archive (doi:10.1021/je400134d):
Numbers after ± are expanded uncertainties.

Settings: 101.33 kPa, Liquid; for speed of sound: Pulse-echo method; for mass density: Vibrating tube method

Compound | speed of sound (293.15 K) [m/s] | mass density (293.15 K) [kg/m3] | speed of sound (298.15 K) [m/s] | mass density (298.15 K) [kg/m3] | speed of sound (303.15 K) [m/s] | mass density (303.15 K) [kg/m3]
CNc1ccccc1 [N-methylaniline] | 1582.7 ± 2.2 | 986.444 ± 0.82 | 1564.7 ± 2.2 | 982.487 ± 0.82 | 1545.8 ± 2.2 | 978.541 ± 0.81
C1CCCCC1 [cyclohexane] | 1278 ± 1 | 778.706 ± 0.15 | 1253.6 ± 0.9 | 774.018 ± 0.16 | 1229.9 ± 0.9 | 769.297 ± 0.16
CCCCCCC [heptane] | 1150.9 ± 0.9 | 683.845 ± 0.18 | 1129.6 ± 0.9 | 679.603 ± 0.18 | 1111.2 ± 0.9 | 675.532 ± 0.19
Cc1ccccc1 [toluene] | 1325.8 ± 0.9 | 866.98 ± 0.1 | 1304.4 ± 0.8 | 862.295 ± 0.11 | 1283.7 ± 0.8 | 857.725 ± 0.11
